Experimental data published in ChEMBL document CHEMBL1131489, “Dihydropyrancarboxamides related to zanamivir: a new series of inhibitors of influenza virus sialidases. 2. Crystallographic and molecular modeling study of complexes of 4-amino-4H-pyran-6-carboxamides and sialidase from influenza virus types A and B” (J Med Chem, 1998).

Target: Neuraminidase (Influenza A virus (A/Puerto Rico/8/1934(H1N1)), UniProt P03468)
Sequence (P03468 whole entry): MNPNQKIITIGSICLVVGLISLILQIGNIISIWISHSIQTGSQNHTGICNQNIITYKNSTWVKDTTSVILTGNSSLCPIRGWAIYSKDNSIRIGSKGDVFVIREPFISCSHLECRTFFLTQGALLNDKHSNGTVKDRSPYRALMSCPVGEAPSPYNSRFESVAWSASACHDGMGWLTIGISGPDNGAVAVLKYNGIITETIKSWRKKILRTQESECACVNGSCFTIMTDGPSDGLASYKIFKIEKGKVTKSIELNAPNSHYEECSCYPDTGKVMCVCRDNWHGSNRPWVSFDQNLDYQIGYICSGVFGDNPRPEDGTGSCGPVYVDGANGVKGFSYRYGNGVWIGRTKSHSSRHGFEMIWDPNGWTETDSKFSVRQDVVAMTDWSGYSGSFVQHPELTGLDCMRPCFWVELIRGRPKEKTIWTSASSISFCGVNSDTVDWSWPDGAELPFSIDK

`CC(=O)N[C@H]1[C@H]([C@H](O)[C@H](O)CO)O[C@](O)(C(=O)O)C[C@@H]1O` showed an IC50 of 1000 µM.
